Tests used:
Assay type in all cases: cell-based
PC3 Cells = test: Cell proliferation (3H-thymidine incorporation), PC3; settings: Homo sapiens, PC-3, 24 hours
Text: (§1) This procedure (Jelinkova, R. B. et al., “Antiproliferative effect of a lectin- and anti-Thy-1.2 antibody-targeted HPMA copolymer-bound doxorubicin on primary and metastatic human colorectal carcinoma and on human colorectal carcinoma transfected with the mouse Thy-1.2 gene”, Bioconjug. Chem. (2000, September-October), Vol. 11, No. 5, pp. 664-73) is used to assess the effect compounds have on various cell lines with respect to proliferation. The rate of anchorage-independent growth of various tumor cells is quantified by measuring the amount of free isotopic thymidine that has been incorporated into the cells over a period of time. The effect of any compound to inhibit the proliferation of various tumor cells could be used as an indication of its ability to prevent disease progression in cancer.
(§2) Cultured tumour cells are harvested cells as per normal procedures: i.e. trypsinize, centrifuge and count cells. […]
(§3) After incubation, plates are observed under the microscope for obvious cell death, abnormal cell shape, crystal formation of the compound, etc. […] Finally, 100 μL of scintillation fluid is added to each well and the plates are counted in a Wallac 1450 Microbeta™ counter according to user manual instructions.
(§4) The amount of inhibition is determined by the following formula: % inhibition=100−[(AVG treatment−AVG positive control)/[…]]

[1] = tested on: PC3 cells, PTPN12 mouse embryonic fibroblasts (MEFs); test: Cell migration in a Boyden chamber; settings: PC-3, cell line of Table 2 not stated
Text: A range of cell lines are used in this assay, particularly the prostate cancer cell line PC3 and PTPN12 mouse embryonic fibroblasts (MEFs). The role of PTPN12 in migration was established based on the observations of PTPN12 negative MEFs. Cell adhesion and migration are dynamic biological activities involving the assembly and disassembly of a large number of extracellular and intracellular molecules, for example, actin, which are regulated in turn by protein phosphorylation. […] Migration is reduced in PTPN12 knock-out MEFs. By extension, a PTPN12 inhibitor should reduce cell migration in a Boyden chamber. Therefore, as a readout for PTPN12 activity, the following assay is designed to analyze cell migration in Boyden chambers. […]
For tumour cell lines, stock cells (i.e. PC3 cells) are grown to 50-70% confluency in T175 flasks. […] Fluorescence of migrated cells is read in a Fluoroskan Ascent FL™ (or equivalent) with bottom reading at excitation/emission wavelength of 485/538 nm. Only those cells that have migrated through the pores of the FluoroBlok™ membrane will be read. […]
Data is expressed as fluorescence unit (FU) from the sum of middle 25 areas per 24-well or as percentage of migration inhibition by following formula: % of invasion inhibition=100−FU of compound treated cell invasion/FU of DMSO treated cell invasion times 100. […]

H460 Cells = test: Cell proliferation (3H-thymidine incorporation), H460; settings: Homo sapiens, NCI-H460, 24 hours
Text: as §1, §2, §3, §4

`S=C1NC(=S)C(=Cc2ccc(-c3ccc(Br)cc3)o2)S1` [5-[5-(4-Bromophenyl)-furan-2-ylmethylene]-thiazolidine-2,4-dithione] was tested, and the inhibition at 50 µM (PC3 Cells) was 15%, the inhibition at 25 µM [1] was 65% and the inhibition at 50 µM (H460 Cells) was 89%.
